In ChEMBL document CHEMBL1144151, “Two novel anti-emetic principles of Alpinia katsumadai” (1999) one finds inhibition in vivo data, which are given here for two compounds.

Common to all, as to type: functional
Common to all, as to settings: route intraperitoneal

In test [1] the test system is Gallus gallus. As to the kind of experiment: Anti-emetic activity against copper sulfate-induced emesis in 4 days old chicks assessed as inhibition of number of retching reflexes at 10 mg/kg, ip measured 10 mins after copper sulfate challenge.
For test [2], the system named is Gallus gallus. The test can be described thus: Anti-emetic activity against copper sulfate-induced emesis in 4 days old chicks assessed as inhibition of number of retching reflexes at 50 mg/kg, ip measured 10 mins after copper sulfate challenge.
Test [3] deals with Gallus gallus. As to the kind of experiment: Anti-emetic activity against copper sulfate-induced emesis in 4 days old chicks assessed as inhibition of number of retching reflexes at 20 mg/kg, ip measured 10 mins after copper sulfate challenge.

The term inhibition in vivo denotes how much of the control response was suppressed. As to `O=C(CCc1ccccc1)C[C@@H]1C[C@@H](c2ccccc2)c2c(cc(/C=C/c3ccccc3)oc2=O)O1` [KATSUMADAIN A], in the test with Gallus gallus [1], the inhibition in vivo at 10 mg/kg was 8.8%. The inhibition in vivo at 50 mg/kg with Gallus gallus [2] came out at 50.2%. Further, the inhibition in vivo at 20 mg/kg in the test on Gallus gallus [3] turned out to be 14.5%.
Take `O=C(CCc1ccccc1)CC(/C=C/c1ccccc1)c1c(O)cc(/C=C/c2ccccc2)oc1=O` (centres undefined) [KATSUMADAIN B]: the inhibition in vivo at 50 mg/kg with Gallus gallus [2] came out at 41.4%.
